Paper PMC9541272, “Carba Analogues of Flupirtine and Retigabine with Improved Oxidation Resistance and Reduced Risk of Quinoid Metabolite Formation” (Chemmedchem, 2022)
“Also recorded” adds a separate entry of the source. Where two headings read alike, the source gives them in different places.

Experiments:
[1] = set-up: method as in guideline OPPTS 830.7570; conditions: reference substances for calibration, Tables S1–S6; ref guideline OPPTS 830.7570; cited from earlier work
KV7.2/3 channel [2] = biological target: T1, KV7.2/3 channel (Homo sapiens, UniProt O43525+O43526); experiment: KV7.2/3 channel opening activity, thallium-flux FLIPR Potassium Assay in HEK-293 cells overexpressing KV7.2/3; set-up: Emax: dose or concentration left out as unconfirmed; conditions: for Emax: HEK293E, read-out: Efficacy
[3] = set-up: method as in PMID 25264565; conditions: oral administration of 400 mg flupirtine, modified release dosage form once daily for 8 days; cited from earlier work
[4] = test system: HEP‐G2 human hepatoma cell line; conditions: human, 24 h
[5] = set-up: method as in earlier work; conditions: severe but sporadic hepatotoxic events; cited from earlier work
[6] = Cyclic voltammetry, anodic peak potential (oxidizability); assay type: physicochemical; conditions: 0.1 M Tris‐HCl buffer pH 7.4, −0.5 to 1.0 V, sweep rate 0.1 V/s, –[b] = no oxidation observed in the specified potential range
[7] = test system: TAMH mouse liver cell line; conditions: mouse, 24 h
KV7.2/3 channel [8] = biological target: T1, KV7.2/3 channel; set-up: method as in PMID 30990511; conditions: previous work; cited from earlier work
[9] = LogD7.4 estimation by HPLC-based method; assay type: physicochemical; conditions: for logD7.4 (single determination): calculated from retention time with one calibration function (A–F)
Experimental: The logarithm of the capacity factors of the reference substances was then plotted against the corresponding logP values taken from the mentioned guideline to obtain a calibration function. For non‐ionizable compounds like the reference substances used for calibration, logP values can be considered equivalent to the logD 7.4 values. To obtain a reference mixture, 2 mg of the reference substances were each dissolved in 1 mL of methanol, and 50 μL aliquots of each reference solution were subsequently combined. The reference mixture was measured before and after the substances to be tested, and the mean retention time from both measurements was used to calculate the calibration function. The calibration function was then used to determine the logD 7.4 values from the corresponding retention times for each substance to be tested. The compounds of interest were injected as a solution in methanol (2 mg/mL), and the retention time was determined as the mean value from two measurements.

[10] = pH 7.4, calculated from retention time with one calibration function (A–F), Table S7, read-out: logD7.4 (single determination)
[11] = pH 7.4, estimated by HPLC-based method, pH 7.4, read-out: LogD 7.4
[12] = HEK‐293 cells overexpressing KV7.2/3

T1 sequence (O43525 whole entry): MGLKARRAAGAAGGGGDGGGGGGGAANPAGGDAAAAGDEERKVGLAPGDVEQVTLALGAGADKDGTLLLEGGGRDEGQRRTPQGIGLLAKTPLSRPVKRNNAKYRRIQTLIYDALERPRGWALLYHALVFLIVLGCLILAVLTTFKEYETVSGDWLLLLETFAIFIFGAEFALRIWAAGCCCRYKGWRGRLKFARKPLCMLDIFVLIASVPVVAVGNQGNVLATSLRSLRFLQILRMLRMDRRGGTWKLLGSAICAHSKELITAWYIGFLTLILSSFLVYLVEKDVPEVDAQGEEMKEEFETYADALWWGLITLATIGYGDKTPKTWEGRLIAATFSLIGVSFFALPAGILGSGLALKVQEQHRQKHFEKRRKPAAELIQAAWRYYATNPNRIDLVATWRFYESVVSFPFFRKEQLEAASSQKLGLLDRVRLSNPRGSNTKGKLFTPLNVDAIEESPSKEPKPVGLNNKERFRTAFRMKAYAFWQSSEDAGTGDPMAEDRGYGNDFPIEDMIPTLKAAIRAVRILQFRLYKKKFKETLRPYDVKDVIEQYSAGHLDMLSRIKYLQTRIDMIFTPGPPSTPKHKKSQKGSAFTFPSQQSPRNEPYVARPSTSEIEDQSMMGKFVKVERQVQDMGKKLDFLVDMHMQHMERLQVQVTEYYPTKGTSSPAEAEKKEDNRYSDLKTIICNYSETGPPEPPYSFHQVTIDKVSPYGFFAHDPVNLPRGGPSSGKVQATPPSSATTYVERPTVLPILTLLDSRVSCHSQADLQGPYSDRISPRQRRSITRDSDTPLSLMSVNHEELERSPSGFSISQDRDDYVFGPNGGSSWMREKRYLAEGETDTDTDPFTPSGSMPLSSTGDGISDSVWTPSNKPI
T1 sequence (O43526 whole entry): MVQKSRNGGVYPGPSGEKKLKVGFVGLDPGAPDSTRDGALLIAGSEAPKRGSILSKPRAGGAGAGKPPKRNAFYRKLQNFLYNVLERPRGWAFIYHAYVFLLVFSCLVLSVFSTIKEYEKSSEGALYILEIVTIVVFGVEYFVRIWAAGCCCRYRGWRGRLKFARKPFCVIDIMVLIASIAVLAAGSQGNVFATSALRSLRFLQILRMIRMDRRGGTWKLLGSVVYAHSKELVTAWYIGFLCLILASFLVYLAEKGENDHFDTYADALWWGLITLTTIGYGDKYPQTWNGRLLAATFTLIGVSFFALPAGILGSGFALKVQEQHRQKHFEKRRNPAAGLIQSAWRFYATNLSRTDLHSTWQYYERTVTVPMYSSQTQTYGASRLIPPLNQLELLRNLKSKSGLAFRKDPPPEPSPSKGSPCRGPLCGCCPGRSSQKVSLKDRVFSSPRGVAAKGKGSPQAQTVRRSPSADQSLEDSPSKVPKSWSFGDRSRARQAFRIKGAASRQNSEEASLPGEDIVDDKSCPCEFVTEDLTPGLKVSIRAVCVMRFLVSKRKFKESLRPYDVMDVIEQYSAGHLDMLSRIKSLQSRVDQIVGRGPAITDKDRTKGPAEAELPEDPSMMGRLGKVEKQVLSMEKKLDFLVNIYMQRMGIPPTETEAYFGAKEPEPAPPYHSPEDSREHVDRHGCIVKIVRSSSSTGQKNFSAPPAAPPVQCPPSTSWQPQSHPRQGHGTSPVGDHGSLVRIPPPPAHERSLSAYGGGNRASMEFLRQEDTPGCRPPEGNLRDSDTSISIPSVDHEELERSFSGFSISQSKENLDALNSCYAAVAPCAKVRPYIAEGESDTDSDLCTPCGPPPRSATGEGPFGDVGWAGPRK

In the case of `CCOC(=O)c1ccccc1` [Ethyl benzoate], the “logD (Lit.)” value [1] is given as 2.6.
For `O=C(Oc1ccccc1)c1ccccc1` [Phenyl benzoate], the “logD (Lit.)” value [1] is listed as 3.6.
In the case of `CCOC(=O)Nc1ccc(NCc2ccc(F)cc2)nc1N` [Flu, flupirtine], the Emax (KV7.2/3 channel [2]) is listed as 100%, the peak plasma concentration [3] is listed as 1.6 µM and the “LD25 (concentration to reduce cell viability by 25 %)” value [4] is listed as 74 ± 40 µM. The “reporting rate of hepatotoxic events” value [5] was 1.68 cases/100,000 patient‐years, the “Ep.a. (anodic peak potential)” value [6] was 306 mV and the “LD25 (concentration to reduce cell viability by 25 %)” value [7] was 103 ± 47 µM. The “LD25 values (range over both liver cell lines)” value ([7]; human) was 74 to 103 µM.
For `CCOC(=O)Nc1ccc(NCc2ccc(F)cc2)nc1C` [compound 6], the “KV7.2/3 opening potency (in words)” value (KV7.2/3 channel [8]) is given as “equipotent to flupirtine”.
For `CCCC(=O)Nc1ccc(CNc2ccc(F)cc2)cn1` [compound 44, N ‐(5‐{[(4‐Fluorophenyl)amino]methyl}pyridin‐2‐yl)butyramide], the melting point was 92 °C.
With `Cc1cc(CNc2ccc(F)cc2)ccc1NC(=O)CCn1cccn1` [compound 53, N ‐(4‐{[(4‐Fluorophenyl)amino]methyl}‐2‐methylphenyl)‐3‐(1H ‐pyrazol‐1‐yl)propanamide] the “logD7.4 (single determination)” value ([9]; Table S7) was 2.924, the chromatographic logD [9, 10] was 2.93 and the chromatographic logD [9, 11] was 2.9. For the same molecule, the EC50 (KV7.2/3 channel [2]) was 2360 ± 543 nM, the Emax (KV7.2/3 channel [2]) was 144 ± 42% and the “KV7.2/3 opening activity (in words)” value (KV7.2/3 channel [2]; [12]) was “fair KV7.2/3 opening activity”. For the same molecule, the “fold decrease in potency compared to butanoylamino sidechain (35 a)” value (KV7.2/3 channel [2]; KV7.2/3 opening, ratio of EC50 values) was 3.5 fold, the “LD25 (concentration to reduce cell viability by 25 %)” value [4] was >63 µM and the “LD50 (concentration to reduce cell viability by 50 %)” value [4] was >63 µM. For the same molecule, the “Ep.a. (anodic peak potential)” value [6] was “no anodic peak potential could be determined; also recorded: –^[b]”, the “LD25 (concentration to reduce cell viability by 25 %)” value [7] was >63 µM and the “LD50 (concentration to reduce cell viability by 50 %)” value [7] was >63 µM.
In the case of `Cc1cc(CNc2ccc(F)cc2)ccc1NC(=O)c1ccccc1CO` [compound 48, N ‐(4‐{[(4‐Fluorophenyl)amino]methyl}‐2‐methylphenyl)‐2‐(hydroxymethyl)benzamide], the “logD7.4 (single determination)” value ([9]; Table S7) is reported as 2.899, the chromatographic logD [9, 10] is reported as 2.93 and the chromatographic logD [9, 11] is reported as 2.9. For the same molecule, the “KV7.2/3 opening activity (in words)” value (KV7.2/3 channel [2]; [12]) was “inactive”, the “EC50 (required concentration to reach half‐maximal KV7.2/3 channel opening activity)” value (KV7.2/3 channel [2]; HEK‐293 cells overexpressing KV7.2/3, mean ± SD, at least three determinations, –[e] = inactive up to a concentration of 20 μM) was “–^[e]” and the Efficacy (KV7.2/3 channel [2]; maximal fluorescence signal relative to flupirtine (100 %), HEK‐293, –[e] = inactive up to a concentration of 20 μM) was “–^[e]”. The “LD25 (concentration to reduce cell viability by 25 %)” value [4] was 80 ± 7 µM, the “LD50 (concentration to reduce cell viability by 50 %)” value [4] was 84 ± 6 µM and the “Ep.a. (anodic peak potential)” value [6] was “no anodic peak potential could be determined; also recorded: –^[b]”. The “LD25 (concentration to reduce cell viability by 25 %)” value [7] was 70 ± 10 µM and the “LD50 (concentration to reduce cell viability by 50 %)” value [7] was >125 µM.
